Measured values taken from patent US20140057941A1, “Methods For Increasing Mean Corpuscular Volume” (priority 2011, published 2014).

Tests used:
Type in all cases: in vivo
[1] = test system: human subjects with end-stage renal disease; test: Mean corpuscular volume (MCV) in human subjects with end-stage renal disease on hemodialysis, 6 weeks TIW, no IV iron; conditions: ESRD; for MCV response following administration for six weeks (Table 1, in words): TIW for 6 weeks, Compound A 1.0, 1.5, 2.0 mg/kg or standard of care epoetin alfa; for Change from baseline of mean MCV over time during the 6 week treatment period (FIG. 1): TIW, Compound A 1.0, 1.5 or 2.0 mg/kg or epoetin alfa; for Mean Change from Baseline MCV at Day 43 (6 weeks) of Treatment: no IV iron
Procedure: The effect of a compound of the present invention on MCV was determined in human subjects with end-stage renal disease as follows. Subjects had been receiving stable maintenance hemodialysis for at least 4 months prior to the initiation of the present study. Additionally, subjects had been maintained on standard of care stable doses of epoetin alfa for the treatment of anemia prior to initiation of the study described herein.
In order to examine differences in the MCV response in subjects treated with a compound of the invention compared to the MCV response in subjects treated with epoetin alpha (the current standard of care), all IV iron supplementation was halted two weeks prior to treatment initiation. Administration of oral iron was allowed.
[…] Baseline MCV levels were determined prior to treatment (mean of two screening period measurements with the Day 1 measurement). MCV levels were measured weekly throughout the 6-week study period.

[2] = test system: human subjects with end-stage renal disease; test: Mean hemoglobin levels in human subjects with end-stage renal disease, 6 week treatment; conditions: TIW; Compound A 1.5 mg/kg and 2.0 mg/kg or epoetin alfa; ESRD
[3] = test system: human subjects with stage 3 or stage 4 chronic kidney disease; test: MCV in stage 3 and stage 4 chronic kidney disease patients, 4 weeks; conditions: stage 3/4 CKD
Procedure: In another series of experiments, the effect of a compound of the present invention on MCV was determined in stage 3 and stage 4 chronic kidney disease patients ([…]) as follows. Subjects with stage 3 or stage 4 chronic kidney disease were administered placebo or Compound A (1.5 mg/kg or 2.0 mg/kg) twice or thrice weekly for 4 weeks. MCV values were measured weekly.

[4] = test system: human subjects with stage 3 or stage 4 chronic kidney disease; test: MCV in stage 3 and stage 4 chronic kidney disease patients not receiving dialysis, fixed dose, 17 weeks; conditions: fixed dose 50 mg or 100 mg twice weekly for 17 weeks, dose adjustments from week 5; stage 3/4 CKD not on dialysis
Procedure: In another set of experiments, the effect of compound of the present invention on MCV was determined in human subjects with stage 3 and stage 4 chronic kidney disease patients (eGFR<60 ml/min) as follows. Subjects with stage 3 or stage 4 chronic kidney disease not receiving dialysis were administered Compound A at a fixed dose of either 50 mg or 100 mg twice weekly for a period of 17 weeks. Dose adjustments were permitted from week 5 onward to correct and maintain subjects to a target hemoglobin range; however, doses were not allowed to exceed 2.2 mg/kg per dose. MCV values were measured weekly.

[5] = test system: human patients, particularly having chronic kidney disease; test: Overall safety and efficacy of tested doses in human patients; conditions: 0.7 to 2.5 mg/kg administered TIW, BIW, or QW
Excerpt: In particular embodiments, the present invention provides an efficacious therapeutic compound for treating a human subject having reduced mean corpuscular volume (MCV). In one embodiment, the invention comprises the compound [(4-hydroxy-1-methyl-7-phenoxy-isoquinoline-3-carbonyl)-amino]-acetic acid for use in methods of increasing mean corpuscular volume (MCV) in a human subject.

Compound | MCV response following administration for six weeks (Table 1, in words) [1] | Change from baseline of mean MCV over time during the 6 week treatment period (FIG. 1) [1] | Mean Change from Baseline MCV at Day 43 (6 weeks) of Treatment ([1]; standard of care doses TIW, N = 10) [fL] | Changes in mean hemoglobin levels during the 6 week treatment period (FIG. 2) [2] | Mean Change from Baseline MCV at Day 43 (6 weeks) of Treatment ([1]; 1 mg/kg TIW, N = 10) | Mean increase in MCV over baseline after 6 weeks of treatment ([1]; 1.3 mg/kg TIW, N=5) [fL] | Mean Change from Baseline MCV at Day 43 (6 weeks) of Treatment ([1]; 1.5 mg/kg TIW, N = 9) | Mean increase in MCV over baseline after 6 weeks of treatment ([1]; 1.8 mg/kg TIW, N=12) [fL] | Mean Change from Baseline MCV at Day 43 (6 weeks) of Treatment ([1]; 2.0 mg/kg TIW, N = 9) | Mean MCV over time (FIG. 3) ([3]; 1.5 mg/kg or 2.0 mg/kg twice or thrice weekly for 4 weeks) | Mean change from baseline MCV at Day 22 (FIG. 4) ([3]; 1.5 mg/kg or 2.0 mg/kg twice or thrice weekly, increase) | Mean MCV over time (FIG. 5) [4] | Efficacy of tested doses (increases in MCV) [5] | Safety of tested doses [5]
Epoetin alfa: erythropoiesis-stimulating agent; current standard of care for anemia, used as control [reference compound] | showed decreases in MCV | no increase in mean MCV occurred | -0.12 | did not result in an increase hemoglobin levels |  |  |  |  |  |  |  |  |  | 
Cc1nc(C(=O)NCC(=O)O)c(O)c2ccc(Oc3ccccc3)cc12 [Compound A, [(4 hydroxy-1-methyl-7-phenoxy-isoquinoline-3-carbonyl)-amino]-acetic acid] | MCV increased in a dose-dependent manner | resulted in an increase in mean MCV over time |  | time-dependent increase in mean hemoglobin levels | +0.90 fL | 2.03 | +1.46 fL | 2.27 | +2.50 fL | mean MCV increased over time | greater than 3 fL | mean MCV initially increased and then stabilized over time | effective | safe
